Measurements from the OligoGym collection.
Several values for one entry are separate records, joined by “and”; a condition that tells them apart may be missing. Identical values can stand only once. After the bases stand the sugars from the 5' end (letter, count) and the backbone: PS all phosphorothioate, else s phosphorothioate and o phosphodiester by linkage. Methylation of C is not given here. l = locked nucleic acid (LNA); k = constrained ethyl (cEt); d = 2'-deoxy (DNA)

How the values were obtained:
[1] = molecular target: ANGPTL2; settings: ASO
[2] = molecular target: MYH7; settings: ASO, CC-2580, 5 µM
[3] = molecular target: KRAS; settings: ASO

Sequence	target mRNA inhibition ([1]; 5 µM) [%]	target mRNA inhibition ([1]; 25 µM) [%]	target mRNA inhibition [2]	also measured
AACCATTTTGAGATTCC (sugars l4 d11 l2, PS)	67.7	81.3		
AACCATTTTGAGATTCCC (sugars l3 d13 l2, PS)	40.2	52.7		
ACAAGCCAGTTGTATGT (sugars l1 d12 l4, PS)	58.2	72.3		
ACACCCAAGACTCAGAT (sugars l4 d11 l2, PS)	6.49	5.75		
ACAGGGAAAGAATTTGGGTC (sugars l1 d16 l3, PS)	44.4	37.5		
AGCTCATTGTTGAGCAG (sugars l1 d13 l3, PS)	4.81	13.2		
AGGCCAACACTAACTCG (sugars l2 d13 l2, PS)	70.5	78.8		
AGGGGCTATGACTATCC (sugars l1 d14 l2, PS)	41.3	45.9		
AGTTCTGTTTGATCTTC (sugars l2 d11 l4, PS)	52.7	69.2		
AGTTGATAGTTTATCTCC (sugars l2 d14 l2, PS)	51.7	64.9		
CAGCTCATTGTTGAGCA (sugars l2 d13 l2, PS)	0.32			
CAGCTTGGCGATGATCT (sugars l1 d9 l4 d1 l2, PS)			-1% and -10%	
CAGCTTGGCGATGATCT (sugars l2 d7 l1 d4 l3, PS)			18% and -5%	
CAGCTTGGCGATGATCT (sugars l2 d11 l4, PS)			65% and 45%	
CAGCTTGGCGATGATCT (sugars l2 d12 l3, PS)			67% and 45%	
CAGCTTGGCGATGATCT (sugars lddlddddddddlldll, PS)			29% and 5%	
CAGCTTGGCGATGATCT (sugars lddlddddddlddddll, PS)			21% and 4%	
CAGCTTGGCGATGATCT (sugars lddlddldddddlddll, PS)			40% and 20%	
CAGCTTGGCGATGATCT (sugars lddlldddddldlddll, PS)			8% and -2%	
CAGCTTGGCGATGATCT (sugars lddlldddddlldddll, PS)			15% and 12%	
CAGCTTGGCGATGATCT (sugars lddllddddldddddll, PS)			23% and 2%	
CAGCTTGGCGATGATCT (sugars lddlllddlddddddll, PS)			12% and 3%	
CAGCTTGGCGATGATCT (sugars ldldddddddlddllll, PS)			40% and 31%	
CAGCTTGGCGATGATCT (sugars ldldldddddddldlll, PS)			9% and 2%	

Sequence	target mRNA inhibition ([1]; 5 µM) [%]	target mRNA inhibition ([1]; 25 µM) [%]	target mRNA inhibition [2]	also measured
CAGCTTGGCGATGATCT (sugars ldldlddddddlddlll, PS)			38% and 29%	
CAGCTTGGCGATGATCT (sugars ldldlddldddddddll, PS)			28% and 3%	
CAGCTTGGCGATGATCT (sugars ldldldldddddddlll, PS)			37% and 14%	
CAGCTTGGCGATGATCT (sugars lldddddddlddlddll, PS)			19% and 5%	
CAGCTTGGCGATGATCT (sugars lldddddddlddlldll, PS)			30% and 25%	
CAGCTTGGCGATGATCT (sugars lldddddddldldldll, PS)			1% and -1%	
CAGCTTGGCGATGATCT (sugars llddddddldddlddll, PS)			17% and -2%	
CAGGTGCTGGTACTTGTG (sugars l1 d15 l2, PS)	40.4	54.2		
CCAGCCGCAGCTTATA (sugars l1 d13 l2, PS)	21.8	35.3		
CCAGGCAGTTTCTTATG (sugars l1 d13 l3, PS)	16.4	25.8		
CCTTTTCACTCTCAATAT (sugars l3 d13 l2, PS)	36.8	43.5		
CGGTTGTAGGTGGGTGG (sugars l1 d14 l2, PS)	21.1	-3.3		
CTATCCTCTCCCAAACATG (sugars l1 d16 l2, PS)	16	24.1		
CTCCGGTAATGGCCC (sugars l1 d12 l2, PS)	-5	15.6		
GAACCATTTTGAGATTCC (sugars l3 d13 l2, PS)	56.6	52		
GAACCATTTTGAGATTCCC (sugars l1 d16 l2, PS)	27.6	7.84		
GAGCCTTTACATGCCG (sugars l2 d12 l2, PS)	41	66.8		
GAGTTGAAGGGAGGTGC (sugars l1 d14 l2, PS)	17.7	-10.3		
GCAAAGGTCAGAAACATC (sugars l3 d12 l3, PS)	28.8	37.7		
GCTGGAAAGAGGGATAGA (sugars l2 d14 l2, PS)	60.7	66.2		
TAGTGGGCACAGTTTCC (sugars l1 d14 l2, PS)	21.2	36.4		
TCCAGGGTGGTGAACTG (sugars l2 d13 l2, PS)	25.1	23.2		
TCTTGATTTGTCAGCA (sugars k3 d10 k3, PS)				target mRNA inhibition ([3]; A431, 0.185 µM): 13% and 0%; target mRNA inhibition ([3]; A431, 0.556 µM): 22% and 21%; target mRNA inhibition ([3]; A431, 1.667 µM): 60% and 47%; target mRNA inhibition ([3]; A431, 2 µM): 62%; target mRNA inhibition ([3]; A431, 5 µM): 75% and 69%
